“Also recorded” adds a separate entry of the source.
What was measured:
BxPC3-luc tumor = assay: In vivo blocking study in tumor-bearing mice; design: species or system BALB/c nu/nu mice; settings: 1 h postinjection
Procedure: The tumor uptake of both the control and blocking groups was 1.61 ± 0.24 and 0.96 ± 0.20% ID/g, respectively. Thus, the figures are shown as not only % ID/g but also as tumor-to-blood ratio.
Figure 7 (a) Tumor uptake and (b) tumor/blood uptake ratios of [^77Br]2 and [^125I]4 at 1 h postinjection with 1 (40 mg/kg) (blocking group) or no treatment control group. Data were presented as means ± SD for three or four mice. Significance was determined using an unpaired Student’s t-test (^*p < 0.05, ^**p < 0.01).
For in vivo blocking studies, the tumor-bearing mice were intraperitoneally injected with 200 µL of 1 (40 mg/kg in 15% ethanol and 85% water) 1 h before intravenous injection of 100 µL of saline solution containing [^77Br]2 and [^125I]4 or [^77Br]3 and [^125I]5 (74 kBq, respectively), 1% tween-80 and 10% ethanol. At 1 h postinjection of radiotracers, the mice were sacrificed.
Tissues in mice were resected and weighed. The radioactivity of the tissues was counted by a gamma counter and counts were corrected for background radiation. The data were expressed as percent injection dose per gram tissue (%ID/g).

[1] = test system: BxPC3-luc cells (PDGFRβ-positive); assay: Cellular uptake study (double tracer method); format: cell-based; settings: BxPC3-luc (PDGFRβ-positive) vs MCF7 (PDGFRβ-negative), 0.5–4 h
Procedure: Figure 5 Cellular uptake study. Time-dependent accumulation of (a) [^77Br]2 and [^125I]4 (b) [^77Br]3 and [^125I]5 in BxPC3-luc and MCF7 cells. Data were presented as mean ± SD for three samples.
Radiotracer uptake experiments in tumor cells were performed using BxPC3-luc and MCF7 cell lines. To compare the uptake between radiobrominated compounds, [^77Br]2 and [^77Br]3, and the corresponding radioiodinated compounds, [^125I]4 and [^125I]5, the cellular uptake experiments were performed by a double tracer method as described previously with a slight modification[30],[31],[35]. Briefly, the cells were seeded in RPMI 1640 medium containing 10% FBS and antibiotics on six-well plates (2 × 10^5 cells/well) for 24 h in a 5% CO2 incubator at 37 °C. After removal of medium, cells were incubated in medium without FBS containing [^77Br]2 (3.7 kBq/well) and [^125I]4 (3.7 kBq/well) or [^77Br]3 (3.7 kBq/well) and [^125I]5 (3.7 kBq/well) and tween-80 (0.1%) for 0.5, 1, 2 and 4 h. Radioiodinated compounds were prepared as described previously][24]. Cells were washed with ice-cold 1 mL of PBS and dissolved using 0.5 mL of 1 M NaOH and wells were washed with 1 M NaOH aqueous solution (0.5 mL). The radioactivity of pooled basic fractions was counted by a gamma counter. A range between 16 and 71 keV was used for measuring ^125I and between 95 and 700 for ^77Br. When radioactivity of ^77Br was counted, the crossover of ^125I activity into the ^77Br channel was negligible. More than one month after the experiment, the radioactivity of ^125I was determined because at that time ^77Br has been decayed and its radioactivity was negligible. The protein in the cell was quantified by a BCA Protein Assay Kit. All data were expressed as %dose/µg protein.

SMILES | Tumor-to-blood ratio, blocking group vs control (BxPC3-luc tumor; pretreatment with 1 (40 mg/kg)) | Tumor uptake, blocking group (BxPC3-luc tumor; pretreatment with 1 (40 mg/kg, intraperitoneal, 1 h before)) [% ID/g] | Cellular uptake in BxPC3-luc cells [1]
COCCOc1ccc2c(c1)ncn2-c1ccc2c([77Br])ccc(N3CCC(N)CC3)c2n1 [[^77Br]2, [^77Br]1-{5-Bromo-2-[5-(2-methoxyethoxy)-1H-benzo[d]imidazol-1-yl]quinoline-8-yl}piperidin-4-amine] | significantly reduced | 0.96 ± 0.20 | higher than that in MCF7 cells; also recorded: higher uptake of [^77Br]2 than that of [^77Br]3
COCCOc1ccc2c(c1)ncn2-c1ccc2cccc(N3CCC(NC(=O)c4cccc([77Br])c4)CC3)c2n1 [[^77Br]3, [^77Br]-N-3-bromobenzoyl-1-{2-[5-(2-methoxyethoxy)-1H-benzo[d]imidazol-1-yl]quinolin-8-yl}-piperidin-4-amine] |  |  | more highly accumulated in BxPC3-luc cells than in MCF7 cells

— PMC6039436, “Radiobrominated benzimidazole-quinoline derivatives as Platelet-derived growth factor receptor beta (PDGFRβ) imaging probes” (Scientific Reports, 2018)
